Source: patent publication US12673944B2, “Compounds having inhibitory activity against glucosylceramide synthase or pharmaceutically acceptable salt thereof, processes for preparing the same, and pharmaceutical compositions comprising the same” (YUHAN CORPORATION, priority 2019, dated 2026)

Columns and labels:
[1] = biological target: T1, glucosylceramide synthase (GCS) (Homo sapiens, UniProt Q16739); assay: GCS enzyme inhibition assay (A549 cell lysate, NBD C6-ceramide, HPLC fluorescence); type: biochemical; details: inhibitory activity against GCS, 37° C., 90 minutes
T1 construct: The obtained supernatant was used; host or cells: A549 cells (lysate supernatant after sonication)
T1 sequence (Q16739 1-394): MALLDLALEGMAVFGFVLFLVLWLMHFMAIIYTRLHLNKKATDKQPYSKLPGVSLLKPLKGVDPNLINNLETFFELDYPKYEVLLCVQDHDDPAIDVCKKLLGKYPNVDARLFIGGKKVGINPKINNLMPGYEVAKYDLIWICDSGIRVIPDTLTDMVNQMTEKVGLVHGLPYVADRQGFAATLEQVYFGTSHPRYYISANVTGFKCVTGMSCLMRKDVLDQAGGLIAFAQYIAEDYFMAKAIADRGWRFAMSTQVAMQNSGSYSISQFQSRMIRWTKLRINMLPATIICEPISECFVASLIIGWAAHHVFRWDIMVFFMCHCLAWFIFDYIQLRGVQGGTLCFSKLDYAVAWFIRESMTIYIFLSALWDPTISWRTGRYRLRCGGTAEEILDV
Outline: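 Percent GCS activity was derived from the GlcCer share of Cer plus GlcCer areas, scaled from ibiglustat (0%) to DMSO (100%). Enzyme came from sonicated A549 lysate in 50 mM HEPES pH 7.3; 90 min incubation at 37° C, chloroform/methanol stop and extraction.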

[2] = system: GM1 production in Jurkat cells; assay: cells; type: cell-based; details: Homo sapiens, Jurkat, 72 h

SMILES	IC50 [1]	IC50 [2]
CC1(C)COc2cc(-c3cccc(Cl)c3Cl)ccc2C1NC(=O)O[C@@H]1CN2CCC1CC2 (stereo partly drawn) [Example 235, (S)-quinuclidin-3-yl (7-(2,3-dichlorophenyl)-3,3-dimethylchroman-4-yl)carbamate]	0.75 nM	7.1 nM
CC1(C)COc2cc(-c3ccc(F)c(Cl)c3)ccc2C1NC(=O)O[C@@H]1CN2CCC1CC2 (stereo partly drawn) [Example 236, (S)-quinuclidin-3-yl (7-(3-chloro-4-fluorophenyl)-3,3-dimethylchroman-4-yl)carbamate]	0.75 nM	3.6 nM
CC1(C)COc2cc(-c3cccc(F)c3Cl)ccc2C1NC(=O)O[C@@H]1CN2CCC1CC2 (stereo partly drawn) [Example 237, (S)-quinuclidin-3-yl (7-(2-chloro-3-fluorophenyl)-3,3-dimethylchroman-4-yl)carbamate]	0.63 nM	5.1 nM
CC1(C)COc2cc(-c3ccc(F)c(F)c3)ccc2C1NC(=O)O[C@@H]1CN2CCC1CC2 (stereo partly drawn) [Example 238, (S)-quinuclidin-3-yl (7-(3,4-difluorophenyl)-3,3-dimethylchroman-4-yl)carbamate]	0.47 nM	5.9 nM
CC1(C)COc2cc(-c3cccc(F)c3F)ccc2C1NC(=O)O[C@@H]1CN2CCC1CC2 (stereo partly drawn) [Example 239, (S)-quinuclidin-3-yl (7-(2,3-difluorophenyl)-3,3-dimethylchroman-4-yl)carbamate]	0.47 nM	4.8 nM
CC1(C)COc2cc(-c3cc(F)cc(F)c3)ccc2C1NC(=O)O[C@@H]1CN2CCC1CC2 (stereo partly drawn) [Example 240, (S)-quinuclidin-3-yl (7-(3,5-difluorophenyl)-3,3-dimethylchroman-4-yl)carbamate]	0.92 nM	5 nM
COc1ccc(-c2ccc3c(c2)OCC(C)(C)C3NC(=O)O[C@@H]2CN3CCC2CC3)cn1 (stereo partly drawn) [Example 241, (S)-quinuclidin-3-yl (7-(6-methoxypyridin-3-yl)-3,3-dimethylchroman-4-yl)carbamate]	0.81 nM	24.1 nM
CC1(C)COc2cc(-c3ccc(-c4ccccc4)cc3)ccc2C1NC(=O)O[C@@H]1CN2CCC1CC2 (stereo partly drawn) [Example 242, (S)-quinuclidin-3-yl (7-([1,1′-biphenyl]-4-yl)-3,3-dimethylchroman-4-yl)carbamate]	0.53 nM	3.8 nM
CC1(C)COc2cc(-c3cncs3)ccc2C1NC(=O)O[C@@H]1CN2CCC1CC2 (stereo partly drawn) [Example 243, (S)-quinuclidin-3-yl (3,3-dimethyl-7-(thiazol-5-yl)chroman-4-yl)carbamate]	1.9 nM	24.1 nM
C=Cc1cccc(-c2ccc3c(c2)OCC(C)(C)C3NC(=O)O[C@@H]2CN3CCC2CC3)c1 (stereo partly drawn) [Example 244, (S)-quinuclidin-3-yl (3,3-dimethyl-7-(3-vinylphenyl)chroman-4-yl)carbamate]	0.42 nM	0.6 nM
COc1ncccc1-c1ccc2c(c1)OCC(C)(C)C2NC(=O)O[C@@H]1CN2CCC1CC2 (stereo partly drawn) [Example 245, (S)-quinuclidin-3-yl (7-(2-methoxypyridin-3-yl)-3,3-dimethylchroman-4-yl)carbamate]	0.95 nM	4.7 nM
COc1cccc(-c2ccc3c(c2)OCC(C)(C)C3NC(=O)O[C@@H]2CN3CCC2CC3)n1 (stereo partly drawn) [Example 246, (S)-quinuclidin-3-yl (7-(6-methoxypyridin-2-yl)-3,3-dimethylchroman-4-yl)carbamate]	0.75 nM	1.3 nM
CC1(C)COc2cc(-c3ccc(C#N)cc3)ccc2C1NC(=O)O[C@@H]1CN2CCC1CC2 (stereo partly drawn) [Example 247, (S)-quinuclidin-3-yl (7-(4-cyanophenyl)-3,3-dimethylchroman-4-yl)carbamate]	0.58 nM	10.7 nM
Cc1ccc(-c2ccc3c(c2)OCC(C)(C)C3NC(=O)O[C@@H]2CN3CCC2CC3)c(F)n1 (stereo partly drawn) [Example 248, (S)-quinuclidin-3-yl (7-(2-fluoro-6-methylpyridin-3-yl)-3,3-dimethylchroman-4-yl)carbamate]	0.86 nM	29.6 nM
CC1(C)COc2cc(-c3ccc4c(c3)OCO4)ccc2C1NC(=O)O[C@@H]1CN2CCC1CC2 (stereo partly drawn) [Example 249, (S)-quinuclidin-3-yl (7-(benzo[d][1,3]dioxol-5-yl)-3,3-dimethylchroman-4-yl)carbamate]	0.39 nM	4 nM
CC1(C)COc2cc(-c3ccc(C4CC4)nc3)ccc2C1NC(=O)O[C@@H]1CN2CCC1CC2 (stereo partly drawn) [Example 250, (S)-quinuclidin-3-yl (7-(6-cyclopropylpyridin-3-yl)-3,3-dimethylchroman-4-yl)carbamate]	0.35 nM	5.4 nM
CN(C)c1ccc(-c2ccc3c(c2)OCC(C)(C)C3NC(=O)O[C@@H]2CN3CCC2CC3)cn1 (stereo partly drawn) [Example 251, (S)-quinuclidin-3-yl (7-(6-(dimethylamino)pyridin-3-yl)-3,3-dimethylchroman-4-yl)carbamate]	1.64 nM	17.5 nM
COc1ccc(F)cc1-c1ccc2c(c1)OCC(C)(C)C2NC(=O)O[C@@H]1CN2CCC1CC2 (stereo partly drawn) [Example 252, (S)-quinuclidin-3-yl (7-(5-fluoro-2-methoxyphenyl)-3,3-dimethylchroman-4-yl)carbamate]	0.54 nM	1.4 nM
CCOc1ccc(-c2ccc3c(c2)OCC(C)(C)C3NC(=O)O[C@@H]2CN3CCC2CC3)cn1 (stereo partly drawn) [Example 253, (S)-quinuclidin-3-yl (7-(6-ethoxypyridin-3-yl)-3,3-dimethylchroman-4-yl)carbamate]	0.76 nM	6.4 nM
COc1ncc(-c2ccc3c(c2)OCC(C)(C)C3NC(=O)O[C@@H]2CN3CCC2CC3)cc1C (stereo partly drawn) [Example 254, (S)-quinuclidin-3-yl (7-(6-methoxy-5-methylpyridin-3-yl)-3,3-dimethylchroman-4-yl)carbamate]	1.7 nM	17.4 nM
COc1c(C)cc(-c2ccc3c(c2)OCC(C)(C)C3NC(=O)O[C@@H]2CN3CCC2CC3)cc1C (stereo partly drawn) [Example 255, (S)-quinuclidin-3-yl (7-(4-methoxy-3,5-dimethylphenyl)-3,3-dimethylchroman-4-yl)carbamate]	1.2 nM	5.1 nM
CCCCc1ccc(-c2ccc3c(c2)OCC(C)(C)C3NC(=O)O[C@@H]2CN3CCC2CC3)cc1 (stereo partly drawn) [Example 256, (S)-quinuclidin-3-yl (7-(4-butylphenyl)-3,3-dimethylchroman-4-yl)carbamate]	0.39 nM	0.2 nM
CC(C)Cc1ccc(-c2ccc3c(c2)OCC(C)(C)C3NC(=O)O[C@@H]2CN3CCC2CC3)cc1 (stereo partly drawn) [Example 257, (S)-quinuclidin-3-yl (7-(4-isobutylphenyl)-3,3-dimethylchroman-4-yl)carbamate]	0.36 nM	0.7 nM
CC(C)Oc1ccc(-c2ccc3c(c2)OCC(C)(C)C3NC(=O)O[C@@H]2CN3CCC2CC3)cn1 (stereo partly drawn) [Example 258, (S)-quinuclidin-3-yl (7-(6-isopropoxypyridin-3-yl)-3,3-dimethylchroman-4-yl)carbamate]	0.45 nM	1 nM
CC1(C)COc2cc(-c3ccc(-c4ccon4)cc3)ccc2C1NC(=O)O[C@@H]1CN2CCC1CC2 (stereo partly drawn) [Example 259, (S)-quinuclidin-3-yl (7-(4-(isoxazol-3-yl)phenyl)-3,3-dimethylchroman-4-yl)carbamate]	1.14 nM	6.9 nM
